Biological target: T1, hNR2B (Homo sapiens, UniProt Q05586+Q13224)
T1 construct: expressed in transfected cells; host or cells: Xenopus laevis oocytes, cRNA-injected
Assay: Electrophysiology NMDA receptor experiments: two electrode voltage-clamp in Xenopus laevis oocytes, hNR2B IC50
Assay type: cell-based
Settings: hNR2B activity class, 50 μM glutamate, 30 μM glycine, read-out: Activity
Description: Stage V and VI oocytes were surgically removed from the ovaries of large, well-fed and healthy Xenopus laevis anesthetized with 3-amino-benzoic acid ethyl ester (3 gm/l). […] Oocytes were then washed in the same solution supplemented with 1.8 mM CaCl2 and maintained in Barth's solution comprised of (in mM): 88 NaCl, 1 KCl, 2.4 NaHCO3, 10 HEPES, 0.82 MgSO4, 0.33 Ca(NO3)2, and 0.91 CaCl2 and supplemented with 100 μg/ml gentamycin, 10 μg/ml streptomycin, and 10 μg/ml penicillin.
Two electrode voltage-clamp recordings were made 2-7 days post-injection. Oocytes were placed in a dual-track plexiglass recording chamber with a single perfusion line that splits in a Y-configuration to perfuse two oocytes. Dual recordings were made at room temperature (23° C.) using two Warner OC725B two-electrode voltage clamp amplifiers, arranged as recommended by the manufacturer. Glass microelectrodes (1-10 Megaohms) were filled with 300 mM KCl (voltage electrode) or 3 M KCl (current electrode). The bath clamps communicated across silver chloride wires placed into each side of the recording chamber, both of which were assumed to be at a reference potential of 0 mV. Oocytes were perfused with a solution comprised of (in mM) 90 NaCl, 1 KCl, 10 HEPES, 10 EDTA and 0.5 BaCl2; pH 7.4, adjusted by addition of NaOH. Oocytes were recorded under voltage clamp at −40 mV. Final concentrations for glutamate and glycine were 50 μM and 30 μM, respectively. […] Dose response curves consisting of four to eight concentrations were obtained in this manner. The baseline leak current at −40 mV was measured before and after recording, and the full recording linearly corrected for any change in leak current. The level of inhibition by applied experimental compounds was expressed as a percent of the initial glutamate response, and averaged together across oocytes from multiple experiments.
For NMDA receptor subtype selectivity experiments human GluN1/GluN2A, GluN1/GluN2C, and GluN1/GluN2D cRNAs were expressed in Xenopus laevis as described above. Here, 10 μM concentrations of the antagonist was perfused with 50 μM glutamate and 30 μM glycine onto the oocyte for two min and the remaining current in the presence of the antagonist was compared to the maximal current obtained with 50 μM glutamate and 30 μM glycine alone (defined as 100%). When IC50 determinations were made against other NMDA receptor subtypes the protocol as described above was followed.

T1 sequence (Q13224 27-1484, other chains not shown): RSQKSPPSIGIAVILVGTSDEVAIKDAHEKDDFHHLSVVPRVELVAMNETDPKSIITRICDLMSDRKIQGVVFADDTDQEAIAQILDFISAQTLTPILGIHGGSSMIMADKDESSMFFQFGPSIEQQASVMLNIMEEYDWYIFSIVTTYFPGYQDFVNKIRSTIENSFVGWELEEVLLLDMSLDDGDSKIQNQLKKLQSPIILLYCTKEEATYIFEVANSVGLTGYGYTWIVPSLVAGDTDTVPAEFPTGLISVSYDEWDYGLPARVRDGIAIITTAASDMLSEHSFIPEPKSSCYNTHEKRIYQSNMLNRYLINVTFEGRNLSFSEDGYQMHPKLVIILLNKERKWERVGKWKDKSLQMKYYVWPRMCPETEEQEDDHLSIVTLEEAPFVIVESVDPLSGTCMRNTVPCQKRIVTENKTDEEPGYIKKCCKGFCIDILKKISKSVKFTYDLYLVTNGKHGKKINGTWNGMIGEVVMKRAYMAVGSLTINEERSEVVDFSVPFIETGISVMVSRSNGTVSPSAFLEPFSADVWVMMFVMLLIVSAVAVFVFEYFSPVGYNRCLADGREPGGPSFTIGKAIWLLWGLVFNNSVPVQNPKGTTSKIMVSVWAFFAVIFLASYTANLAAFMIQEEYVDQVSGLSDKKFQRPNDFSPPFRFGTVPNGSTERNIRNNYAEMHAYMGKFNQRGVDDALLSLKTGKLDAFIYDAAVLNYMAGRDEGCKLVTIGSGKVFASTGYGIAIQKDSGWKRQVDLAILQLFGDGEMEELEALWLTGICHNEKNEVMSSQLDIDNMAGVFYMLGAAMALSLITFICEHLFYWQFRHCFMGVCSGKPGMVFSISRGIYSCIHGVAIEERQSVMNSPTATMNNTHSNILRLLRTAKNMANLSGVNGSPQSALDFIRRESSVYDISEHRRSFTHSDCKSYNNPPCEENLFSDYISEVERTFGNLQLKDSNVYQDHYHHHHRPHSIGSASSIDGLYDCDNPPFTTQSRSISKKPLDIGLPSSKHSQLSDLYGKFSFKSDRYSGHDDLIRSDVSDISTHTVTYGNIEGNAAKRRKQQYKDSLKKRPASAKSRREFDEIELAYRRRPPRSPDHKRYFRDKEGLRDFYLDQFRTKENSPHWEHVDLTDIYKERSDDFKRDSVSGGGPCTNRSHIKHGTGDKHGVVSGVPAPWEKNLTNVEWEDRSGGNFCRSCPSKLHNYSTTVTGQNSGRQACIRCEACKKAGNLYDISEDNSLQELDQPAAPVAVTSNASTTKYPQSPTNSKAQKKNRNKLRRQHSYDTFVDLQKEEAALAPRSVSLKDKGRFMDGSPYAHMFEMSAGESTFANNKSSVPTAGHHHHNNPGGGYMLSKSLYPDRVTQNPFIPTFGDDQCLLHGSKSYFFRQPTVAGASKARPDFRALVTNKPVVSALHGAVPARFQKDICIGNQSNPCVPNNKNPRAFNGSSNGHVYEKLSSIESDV

Compound	IC50 [nM]
Oc1ccc(OCc2nnc(NCc3ccc(Cl)c(Cl)c3)o2)cc1 [Example 114]	< 200
Oc1ccc(OCc2nnc(Nc3ccc(Cl)c(Cl)c3)o2)cc1 [Example 115]	< 200
Oc1cccc(OCc2nnc(Nc3ccc(Cl)c(Cl)c3)o2)c1 [Example 116]	1000 to 10000
Oc1ccc(OCc2nnc(NCc3ccc(Cl)c(Cl)c3)o2)nn1 [Example 117]	> 10000
Oc1ccc(OCc2nnc(Nc3ccc(Cl)c(Cl)c3)o2)nn1 [Example 118]	1000 to 10000
Oc1c(F)cc(OCc2nnc(Nc3ccc(Cl)c(Cl)c3)o2)cc1F [Example 119]	201 to 1000
Clc1ccc(CNc2nnc(COc3ccc4c(c3)CCCN4)o2)cc1Cl [Example 120]	> 10000
O=c1cnc2cc(OCc3nnc(Nc4ccc(Cl)c(Cl)c4)o3)ccc2[nH]1 [Example 123]	1000 to 10000
O=c1cnc2cc(OCc3nnc(Nc4ccc(C(F)(F)F)cc4)o3)ccc2[nH]1 [Example 124]	1000 to 10000
O=C1COc2cc(OCc3nnc(Nc4ccc(Cl)c(Cl)c4)o3)ccc2N1 [Example 125]	201 to 1000
O=C1COc2cc(OCc3nnc(Nc4ccc(OC(F)(F)F)cc4)o3)ccc2N1 [Example 126]	201 to 1000
O=C1COc2cc(OCc3nnc(NCc4ccc(Cl)c(Cl)c4)o3)ccc2N1 [Example 127]	201 to 1000
O=C1CCc2cc(CCc3nnc(Nc4ccc(Cl)cc4)o3)ccc2N1 [Example 129]	< 200
O=C1CCc2cc(CCc3nnc(Nc4ccc(C(F)(F)F)cc4)o3)ccc2N1 [Example 130]	< 200
O=C1CCc2cc(CCc3nnc(Nc4ccc(Cl)c(Cl)c4)o3)ccc2N1 [Example 131]	< 200
O=C1CCc2cc(CCc3nnc(NCc4ccc(Cl)c(Cl)c4)o3)ccc2N1 [Example 132]	< 200
O=C1CCc2cc(CCc3nnc(Nc4ccc(OC(F)F)cc4)o3)ccc2N1 [Example 133]	< 200
O=C1CCc2cc(CCc3nnc(Nc4ccc(OC(F)(F)F)cc4)o3)ccc2N1 [Example 134]	< 200
O=C1CCc2cc(CCc3nnc(Nc4ccc(Cl)c(F)c4)o3)ccc2N1 [Example 135]	< 200
O=c1ccc2cc(CCc3nnc(Nc4ccc(Cl)c(Cl)c4)o3)ccc2[nH]1 [Example 136]	< 200
O=c1ccc2cc(CCc3nnc(Nc4ccc(OC(F)(F)F)c(Cl)c4)o3)ccc2[nH]1 [Example 137]	< 200
O=c1ccc2cc(CCc3nnc(Nc4ccc(C(F)(F)F)cc4)o3)ccc2[nH]1 [Example 138]	< 200
FC(F)(F)c1n[nH]c2ccc(CCc3nnc(Nc4ccc(Cl)c(Cl)c4)o3)cc12 [Example 143]	> 10000
FC(F)(F)c1ccc(Nc2nnc(CCc3ccc4[nH]ncc4c3)o2)cc1 [Example 144]	< 200

Compound	IC50 [nM]
Clc1ccc(Nc2nnc(CCCc3ccc4[nH]ncc4c3)o2)cc1Cl [Example 145]	1000 to 10000
Oc1cccc(Cc2nnc(Nc3ccc(Cl)c(Cl)c3)o2)c1 [Example 147]	1000 to 10000
Oc1cccc(Cc2nnc(NCc3ccc(Cl)c(Cl)c3)o2)c1 [Example 148]	> 10000
Oc1ccc(Cc2nnc(Nc3ccc(Cl)c(Cl)c3)o2)cc1 [Example 149]	1000 to 10000
Oc1ccc(Cc2nnc(NCc3ccc(Cl)c(Cl)c3)o2)cc1 [Example 150]	1000 to 10000
Oc1ccc(CCc2nnc(Nc3ccc(Cl)c(Cl)c3)o2)cc1 [Example 151]	< 200
Oc1ccc(CCc2nnc(Nc3ccc(OC(F)(F)F)cc3)o2)cc1 [Example 153]	< 200
O=c1ccc2cc(C3CC3c3nnc(Nc4ccc(OC(F)F)c(Cl)c4)o3)ccc2[nH]1 (stereo not drawn) [Example 155]	< 200
O=c1ccc2cc(OCc3nc(Nc4ccc(C(F)(F)F)c(F)c4)no3)ccc2[nH]1 [Example 157]	> 10000
O=c1ccc2cc(OCc3nc(Nc4ccc(F)cc4)no3)ccc2[nH]1 [Example 158]	> 10000
O=c1ccc2cc(OCc3nc(Nc4cccc(Cl)c4)no3)ccc2[nH]1 [Example 161]	> 10000
O=c1ccc2cc(OCc3nc(Nc4cc(Cl)cc(Cl)c4)no3)ccc2[nH]1 [Example 164]	1000 to 10000
Cc1ccc(Nc2noc(COc3ccc4[nH]c(=O)ccc4c3)n2)cc1 [Example 165]	1000 to 10000
COc1ccc(Nc2noc(COc3ccc4[nH]c(=O)ccc4c3)n2)cc1F [Example 166]	< 200
O=c1ccc2cc(OCc3nc(Nc4ccc(Cl)c(Cl)c4)no3)ccc2[nH]1 [Example 178]	201 to 1000
O=C1CCc2cc(OCc3nc(Nc4ccc(OC(F)(F)F)cc4)no3)ccc2N1 [Example 179]	201 to 1000
O=C1CCc2cc(OCc3nc(Nc4ccc(C(F)(F)F)cc4)no3)ccc2N1 [Example 180]	1000 to 10000
O=C1CCc2cc(OCc3nc(Nc4ccc(Cl)cc4)no3)ccc2N1 [Example 182]	1000 to 10000
O=c1ccc2cc(OCc3nc(Nc4ccc(Cl)cc4)no3)ccc2[nH]1 [Example 183]	1000 to 10000
Oc1ccc(OCc2nc(Nc3ccc(Cl)c(Cl)c3)no2)cc1 [Example 184]	1000 to 10000
Oc1ccc(OCc2nc(Nc3ccc(C(F)(F)F)cc3)no2)cc1 [Example 185]	1000 to 10000
O=C1CCc2cc(OCc3nc(Nc4ccc(OC(F)F)cc4)no3)ccc2N1 [Example 186]	201 to 1000
Clc1ccc(Nc2noc(COc3ccc4[nH]ncc4c3)n2)cc1Cl [Example 187]	> 10000
FC(F)(F)c1ccc(Nc2noc(COc3ccc4[nH]ncc4c3)n2)cc1 [Example 188]	> 10000

Compound	IC50 [nM]
Clc1ccc(CNc2noc(COc3ccc4[nH]ncc4c3)n2)cc1 [Example 189]	1000 to 10000
O=c1ccc2cc(OCc3nc(Nc4ccc(OC(F)F)c(Cl)c4)no3)ccc2[nH]1 [Example 191]	< 200
O=c1ccc2cc(OCc3nc(Nc4ccc(F)c(Cl)c4)no3)ccc2[nH]1 [Example 192]	1000 to 10000
FC(F)(F)Oc1ccc(Nc2noc(CCc3ccc4[nH]nc(C(F)(F)F)c4c3)n2)cc1 [Example 195]	> 10000
FC(F)Oc1ccc(Nc2noc(CCc3ccc4[nH]nc(C(F)(F)F)c4c3)n2)cc1Cl [Example 197]	> 10000
Clc1ccc(Nc2noc(CCc3ccc4[nH]ncc4c3)n2)cc1Cl [Example 198]	1000 to 10000
O=C1CCc2cc(CCc3nc(Nc4ccc(Cl)c(Cl)c4)no3)ccc2N1 [Example 199]	> 10000
Clc1ccc(Nc2noc(CCCc3ccc4[nH]ncc4c3)n2)cc1Cl [Example 202]	> 10000
FC(F)(F)c1ccc(Nc2noc(CCCc3ccc4[nH]ncc4c3)n2)cc1 [Example 203]	> 10000
O=c1ccc2cc(CCc3nc(Nc4ccc(Cl)c(Cl)c4)no3)ccc2[nH]1 [Example 204]	201 to 1000
FC(F)Oc1ccc(Nc2noc(CCc3ccc4[nH]ncc4c3)n2)cc1Cl [Example 205]	> 10000
FC(F)Oc1ccc(Nc2noc(CCCc3ccc4[nH]ncc4c3)n2)cc1Cl [Example 206]	1000 to 10000
FC(F)Oc1ccc(Nc2noc(CCNc3ncnc4[nH]ncc34)n2)cc1Cl [Example 207]	< 200
Fc1cc(Nc2noc(CCc3ccc4[nH]ncc4c3)n2)ccc1OC(F)F [Example 210]	< 200
CCc1ccc(Nc2noc(CCc3ccc4[nH]ncc4c3)n2)cc1 [Example 211]	< 200
CCc1ccc(Nc2noc(CCc3ccc4[nH]ncc4c3)n2)cc1Cl [Example 212]	201 to 1000
COc1ccc(Nc2noc(CCc3ccc4[nH]ncc4c3)n2)cc1C [Example 213]	1000 to 10000
Cc1cc(Nc2noc(CCc3ccc4[nH]ncc4c3)n2)ccc1OC(F)F [Example 214]	201 to 1000
CCc1ccc(Nc2noc(CCc3ccc4[nH]ncc4c3)n2)cc1F [Example 215]	< 200
Fc1ccc(Nc2noc(CCc3ccc4[nH]ncc4c3)n2)cc1C(F)F [Example 216]	201 to 1000
Oc1ccc(CCc2nc(Nc3ccc(OC(F)F)c(F)c3)no2)cc1 [Example 219]	< 200
Oc1ccc(CCc2nc(Nc3ccc(C(F)(F)F)cc3)no2)cc1 [Example 223]	201 to 1000

Same assay, conditions: voltage clamp -40 mV, 50 μM glutamate, 30 μM glycine, read-out: hNR2B IC50

Compound	IC50 [nM]
Oc1ccc(CCc2nnc(NCc3ccc(Cl)c(Cl)c3)o2)cc1 [Example 128, 4-(2-(5-(3,4-dichlorobenzylamino)-1,3,4-oxadiazol-2-yl)ethyl)phenol]	61
FC(F)Oc1ccc(Nc2nnc(CCc3ccc4[nH]nc(C(F)(F)F)c4c3)o2)cc1Cl [Example 142]	4680
Fc1cc(Nc2nnc(CCCc3ccc4[nH]ncc4c3)o2)ccc1Cl [Example 146]	230
Oc1ccc(CCc2nnc(Nc3ccc(C(F)(F)F)cc3)o2)cc1 [Example 152]	48
O=c1ccc2cc(C3CC3c3nnc(Nc4ccc(C(F)(F)F)cc4)o3)ccc2[nH]1 (stereo not drawn) [Example 154, 6-(2-(5-((4-(trifluoromethyl)phenyl)amino)-1,3,4-oxadiazol-2-yl)cyclopropyl)quinolin-2(1H)-one]	9.5
O=C1CCc2cc(OCc3nc(Nc4ccc(Cl)c(Cl)c4)no3)ccc2N1 [Example 156, 6-((3-(3,4-dichlorophenylamino)-1,2,4-oxadiazol-5-yl)methoxy)-3,4-dihydroquinolin-2(1H)-one]	390
COc1ccc(Nc2noc(COc3ccc4[nH]c(=O)ccc4c3)n2)cc1Cl [Example 167]	300
O=c1ccc2cc(OCc3nc(Nc4ccc(C(F)(F)F)cc4)no3)ccc2[nH]1 [Example 181]	145
O=c1ccc2cc(OCc3nc(Nc4ccc(OC(F)F)cc4)no3)ccc2[nH]1 [Example 190]	168
O=C1CCc2cc(CCc3nc(Nc4ccc(Cl)c(Cl)c4)no3)ccc2N1 [Example 194, 6-(2-(3-(3,4-dichlorophenylamino)-1,2,4-oxadiazol-5-yl)ethyl)-3,4-dihydroquinolin-2(1H)-one]	> 10000
Oc1ccc(CCc2nc(NCc3ccc(Cl)cc3)no2)cc1 [Example 200]	320
FC(F)Oc1ccc(Nc2noc(CCc3ccc4[nH]ncc4c3)n2)cc1 [Example 201]	470
O=c1ccc2cc(CCc3nc(Nc4ccc(OC(F)F)c(Cl)c4)no3)ccc2[nH]1 [Example 208]	11
Cc1ccc(Nc2noc(CCc3ccc4[nH]ncc4c3)n2)cc1F [Example 209]	19
